Experiments:
Assay in all cases: biochemical
Design in all cases: Ubiquigent DUB profiler selectivity panel, remaining enzyme activity as % of control
Conditions in all cases: read-out: % of control remaining
USP30 = target: T1, USP30 (Homo sapiens, UniProt Q70CQ3)
T1 sequence (Q70CQ3 1-517): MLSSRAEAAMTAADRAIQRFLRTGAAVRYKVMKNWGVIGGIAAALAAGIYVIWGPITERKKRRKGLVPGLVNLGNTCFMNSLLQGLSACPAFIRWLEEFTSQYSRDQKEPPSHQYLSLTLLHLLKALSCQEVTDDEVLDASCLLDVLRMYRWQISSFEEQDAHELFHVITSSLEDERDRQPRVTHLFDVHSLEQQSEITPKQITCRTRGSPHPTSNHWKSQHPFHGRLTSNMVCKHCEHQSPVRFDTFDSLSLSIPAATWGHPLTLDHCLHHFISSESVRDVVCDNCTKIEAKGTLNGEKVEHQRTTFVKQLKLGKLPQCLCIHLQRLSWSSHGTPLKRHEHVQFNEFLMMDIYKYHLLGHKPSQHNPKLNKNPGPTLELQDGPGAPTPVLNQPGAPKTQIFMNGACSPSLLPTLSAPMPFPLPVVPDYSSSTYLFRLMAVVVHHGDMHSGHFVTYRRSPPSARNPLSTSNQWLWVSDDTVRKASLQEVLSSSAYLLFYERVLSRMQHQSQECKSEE
Method in brief: (§1)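 In YFP-PRKN-overexpressing hTERT-RPE1 cells, 1 h antimycin A plus oligomycin A (1 μM each) with CMPD-39, then Western blot of TOMM20 ubiquitylation. Target engagement: 2 h compound, then 10 min HA-Ub-PA at 37°C, read as USP30 shift. DUB panel (>40 enzymes) screened at 1-100 μM.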

AMSH-LP = target: T2, AMSH-LP (Homo sapiens, UniProt Q96FJ0)
T2 construct: gene STAMBPL1
T2 sequence (Q96FJ0 1-436): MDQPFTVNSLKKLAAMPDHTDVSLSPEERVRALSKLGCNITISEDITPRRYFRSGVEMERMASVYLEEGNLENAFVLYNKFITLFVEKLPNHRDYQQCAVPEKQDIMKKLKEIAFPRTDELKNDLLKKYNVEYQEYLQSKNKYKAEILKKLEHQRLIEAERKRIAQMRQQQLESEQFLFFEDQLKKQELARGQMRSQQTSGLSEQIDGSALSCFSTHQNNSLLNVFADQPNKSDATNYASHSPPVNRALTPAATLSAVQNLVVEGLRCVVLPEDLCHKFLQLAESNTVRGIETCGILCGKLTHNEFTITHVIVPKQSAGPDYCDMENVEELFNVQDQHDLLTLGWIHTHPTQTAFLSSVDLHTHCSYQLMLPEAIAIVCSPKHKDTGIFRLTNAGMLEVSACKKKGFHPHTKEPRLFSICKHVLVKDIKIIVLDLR
Method in brief: as §1

[1] = target: T3, USP14 (+Proteasome-VS@Kd) (Homo sapiens, UniProt P54578)
T3 construct: +Proteasome-VS@Kd
Method in brief: as §1

UCHL3 = target: T4, UCHL3 (Homo sapiens, UniProt P15374)
T4 sequence (P15374 1-230): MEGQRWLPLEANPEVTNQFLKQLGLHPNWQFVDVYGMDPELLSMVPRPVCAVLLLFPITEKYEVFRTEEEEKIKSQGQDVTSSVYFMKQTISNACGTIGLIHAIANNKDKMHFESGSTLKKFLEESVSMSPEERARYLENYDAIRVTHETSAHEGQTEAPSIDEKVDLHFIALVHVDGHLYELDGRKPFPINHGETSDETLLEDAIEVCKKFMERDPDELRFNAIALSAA
Method in brief: as §1

USP1/UAF1 = USP1/UAF1 (Homo sapiens, UniProt O94782)
Method in brief: as §1

OTUD6A = target: T5, OTUD6A (Homo sapiens, UniProt Q7L8S5)
T5 sequence (Q7L8S5 1-288): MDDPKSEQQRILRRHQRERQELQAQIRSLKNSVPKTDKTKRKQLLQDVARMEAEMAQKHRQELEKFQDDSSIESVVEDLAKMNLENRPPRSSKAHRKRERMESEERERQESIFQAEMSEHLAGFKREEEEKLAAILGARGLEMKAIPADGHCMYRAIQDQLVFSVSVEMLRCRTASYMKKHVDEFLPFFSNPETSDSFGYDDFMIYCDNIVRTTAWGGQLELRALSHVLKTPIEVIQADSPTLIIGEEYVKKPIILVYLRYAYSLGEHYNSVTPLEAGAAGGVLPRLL
Method in brief: as §1

T3 sequence (P54578 whole entry): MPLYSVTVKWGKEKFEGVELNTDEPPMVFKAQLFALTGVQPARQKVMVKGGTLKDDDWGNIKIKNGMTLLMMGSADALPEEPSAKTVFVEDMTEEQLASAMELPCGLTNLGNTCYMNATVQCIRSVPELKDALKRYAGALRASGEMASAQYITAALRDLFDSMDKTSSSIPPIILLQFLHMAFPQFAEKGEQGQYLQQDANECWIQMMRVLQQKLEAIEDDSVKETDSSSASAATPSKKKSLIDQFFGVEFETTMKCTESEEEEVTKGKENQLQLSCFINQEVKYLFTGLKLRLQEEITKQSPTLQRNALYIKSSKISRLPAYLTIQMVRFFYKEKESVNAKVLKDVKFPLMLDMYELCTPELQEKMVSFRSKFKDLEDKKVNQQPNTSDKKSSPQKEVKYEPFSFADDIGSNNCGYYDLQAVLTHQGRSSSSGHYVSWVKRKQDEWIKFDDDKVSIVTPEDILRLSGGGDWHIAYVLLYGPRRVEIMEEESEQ
Sequence of USP1/UAF1 (O94782 whole entry): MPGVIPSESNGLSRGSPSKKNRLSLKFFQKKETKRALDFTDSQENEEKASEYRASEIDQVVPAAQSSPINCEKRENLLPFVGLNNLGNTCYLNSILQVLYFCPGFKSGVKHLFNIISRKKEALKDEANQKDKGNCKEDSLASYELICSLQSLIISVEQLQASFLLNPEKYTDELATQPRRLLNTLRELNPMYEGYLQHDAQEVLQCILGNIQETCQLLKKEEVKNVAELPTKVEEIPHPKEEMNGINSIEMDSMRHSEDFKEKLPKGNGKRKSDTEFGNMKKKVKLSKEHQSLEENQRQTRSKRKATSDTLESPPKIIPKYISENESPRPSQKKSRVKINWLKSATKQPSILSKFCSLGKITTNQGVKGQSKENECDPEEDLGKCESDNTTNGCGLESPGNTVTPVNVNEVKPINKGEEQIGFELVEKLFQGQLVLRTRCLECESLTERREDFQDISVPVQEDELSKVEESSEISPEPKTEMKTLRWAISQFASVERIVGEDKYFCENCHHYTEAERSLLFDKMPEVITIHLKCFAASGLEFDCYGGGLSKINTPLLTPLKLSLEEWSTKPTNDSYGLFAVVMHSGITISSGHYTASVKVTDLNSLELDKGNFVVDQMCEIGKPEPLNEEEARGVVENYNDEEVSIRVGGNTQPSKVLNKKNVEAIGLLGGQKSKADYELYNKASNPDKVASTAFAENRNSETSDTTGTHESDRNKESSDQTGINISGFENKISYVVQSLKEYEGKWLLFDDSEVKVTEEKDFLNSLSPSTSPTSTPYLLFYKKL
Sequence of USP1/UAF1 (Q8TAF3 whole entry partner): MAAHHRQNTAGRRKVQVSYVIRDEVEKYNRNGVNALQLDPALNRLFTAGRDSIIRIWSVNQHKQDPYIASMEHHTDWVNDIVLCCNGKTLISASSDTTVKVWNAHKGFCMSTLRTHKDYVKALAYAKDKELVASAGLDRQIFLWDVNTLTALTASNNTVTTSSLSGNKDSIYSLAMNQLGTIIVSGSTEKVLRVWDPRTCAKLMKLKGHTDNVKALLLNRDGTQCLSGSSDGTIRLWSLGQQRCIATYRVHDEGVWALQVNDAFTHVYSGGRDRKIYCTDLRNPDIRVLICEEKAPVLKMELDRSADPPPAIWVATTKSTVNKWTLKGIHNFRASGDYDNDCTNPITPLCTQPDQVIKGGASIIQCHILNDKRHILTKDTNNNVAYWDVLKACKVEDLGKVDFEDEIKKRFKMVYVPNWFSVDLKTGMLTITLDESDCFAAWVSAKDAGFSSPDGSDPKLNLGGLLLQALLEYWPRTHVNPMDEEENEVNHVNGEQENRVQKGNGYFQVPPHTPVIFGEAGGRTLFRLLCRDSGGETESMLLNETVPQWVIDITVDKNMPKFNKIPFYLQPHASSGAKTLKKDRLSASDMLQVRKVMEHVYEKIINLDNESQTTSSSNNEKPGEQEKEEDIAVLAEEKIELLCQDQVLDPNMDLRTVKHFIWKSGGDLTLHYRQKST

Work on CC(C)(C)NS(=O)(=O)c1ccc(NC(=O)[C@H](Cc2ccccc2)NC(=O)c2ccc(F)cc2)cc1 [compound 39, CMPD-39] yielded a remaining activity at 1 µM (USP30) of 0.756%, a remaining activity at 10 µM (USP30) of 0.5% and a remaining activity at 100 µM (USP30) of 3.27%. It also gave a remaining activity at 1 µM (AMSH-LP) of 109%, a remaining activity at 10 µM (AMSH-LP) of 102% and a remaining activity at 100 µM (AMSH-LP) of 112%. For the same compound, the remaining activity at 1 µM [1] was 107%, the remaining activity at 10 µM [1] was 100% and the remaining activity at 100 µM [1] was 96.1%. It also gave a remaining activity at 1 µM (UCHL3) of 107%, a remaining activity at 10 µM (UCHL3) of 98.8% and a remaining activity at 100 µM (UCHL3) of 97.6%. The remaining activity at 1 µM (USP1/UAF1) was 98.6%, the remaining activity at 10 µM (USP1/UAF1) was 95.6% and the remaining activity at 100 µM (USP1/UAF1) was 97.4%. The remaining activity at 1 µM (OTUD6A) was 103%, the remaining activity at 10 µM (OTUD6A) was 99.3% and the remaining activity at 100 µM (OTUD6A) was 101%.

Reference: PMC8645336, “Benchmarking a highly selective USP30 inhibitor for enhancement of mitophagy and pexophagy” (Life Science Alliance, 2021)
